From patent US8212016B2, “NPC1L1 orthologues” (Schering Corporation, priority 2006, dated 2012)
Where two headings read alike, the source gives them in different places.

Columns and labels:
monkey NPC1L1 [1] = target: T1, monkey NPC1L1 (Macaca mulatta, UniProt A0MJA5); assay: Fluorescence NPC1L1 binding assay, HEK-293 cells, BODIPY-labeled compound 1; parameters: species or system rhesus monkey
Description: Cell Culture and Membrane Preparation. Each plasmid pCR3.1 harboring NPC1L1 was prepared using standard molecular biology protocols. Stable cell lines expressing human, rhesus monkey, mouse, rat, hamster, canine or rabbit NPC1L1 were generated using Lipofectamine 2000 transfection reagent in HEK-293 cells according to the manufacturer's protocol. Cells were maintained in DMEM supplemented with 10% FBS, 100 U/ml pen/strep, and 500 μg/ml geneticin at 37° C., 5% CO2. All cell culture reagents were obtained from Invitrogen Life Technologies, (Carlsbad, Calif.). Cell membranes were prepared by lysing cells in 5 mM HEPES with protease inhibitors (Complete™ Protease Inhibitor Cocktail Tablets; Roche Diagnostics Corp., Indianapolis Ind.) for 15 min at 4° C. A membrane pellet was obtained by centrifuging the cell lysates at 12,000×g for 25 min. The membranes were resuspended in 5 mM HEPES with protease inhibitors and triturated with a 21G needle.
Fluorescence. Cells were plated into 384-well black/clear plates (BD Biosciences, Bedford Mass.) for binding experiments the following day. The media was aspirated. […] Media (20 μl) containing the indicated concentration of compound was then added to the wells. […] The binding reaction was allowed to proceed for 4 hours at 37° C. Subsequently the media was aspirated and the cells washed once with PBS.

monkey NPC1L1 [2] = target: T1, monkey NPC1L1; assay: Radioligand binding of [3H]-glucuronidated ezetimibe (compound 4) to cell membranes; parameters: species or system rhesus monkey
Description: Cell Culture and Membrane Preparation. […] Cells were maintained in DMEM supplemented with 10% FBS, 100 U/ml pen/strep, and 500 μg/ml geneticin at 37° C., 5% CO2. All cell culture reagents were obtained from Invitrogen Life Technologies, (Carlsbad, Calif.). Cell membranes were prepared by lysing cells in 5 mM HEPES with protease inhibitors (Complete™ Protease Inhibitor Cocktail Tablets; Roche Diagnostics Corp., Indianapolis Ind.) for 15 min at 4° C. A membrane pellet was obtained by centrifuging the cell lysates at 12,000×g for 25 min. […] Radioligand. […] Natl. Acad. Sci. […] Reactions were performed in binding buffer (5 mM HEPES, 5.5 mM glucose, 117 mM NaCl and 5.4 mM KCl, pH 7.4). Cell membranes (50 μg in 20 μl) were added to each well. […] Binding reactions were incubated for 2 hours at 37° C. Samples were transferred to Unifilter-96 GF/C plates (Perkin Elmer, Wellesley Mass.) and filtered using a Brandel harvester (Gaithersburg Md.). […] Liquid scintillant (50 μl; Microscint-20, Perkin Elmer, Wellesley Mass.) was added and the bound radioactivity was measured using a microplate scintillation counter.

[3] = system: plasma and liver cholesterol; assay: Percent cholesterol lowering in plasma and liver; type: in vivo; conditions: hamster
canine NPC1L1 = canine NPC1L1 (Canis lupus familiaris, UniProt A0MJA4); assay: Fluorescence NPC1L1 binding assay, HEK-293 cells, BODIPY-labeled compound 1
rabbit NPC1L1 = rabbit NPC1L1 (Oryctolagus cuniculus, UniProt A0MJA7); assay: as above
[4] = system: ^14C-cholesterol absorption; assay: Acute cholesterol absorption assay; type: in vivo; conditions: rat, intraduodenal; read-out: rat ED50, inhibition of cholesterol absorption
Description: Acute cholesterol absorption assay. ^14C-cholesterol absorption was determined acutely in rats using conditions previously described (Van Heek et al., J. Pharmacol. Exp. Ther. 283: 157-163 (1997)). Compounds were dissolved in rat bile and delivered (1.0 ml) intraduodenally by bolus injection via an intestinal catheter, followed by 1.0 ml saline rinse (0.9%). Following a 30 min incubation, a cholesterol emulsion containing 3 mg cholesterol and 2 μCi ^14C-cholesterol (3 ml) was delivered to each rat as a bolus via intestinal catheter, followed by 1 ml saline rinse. Animals were sacrificed 90 min later and ^14C-cholesterol levels in plasma, liver, intestinal contents, and intestinal wall were determined.

SMILES: O=C(O)[C@H]1O[C@@H](Oc2ccc([C@@H]3[C@@H](CC[C@H](O)c4ccc(F)cc4)C(=O)N3c3ccc(F)cc3)cc2)[C@H](O)[C@@H](O)[C@@H]1O [compound 4, glucuronidated ezetimibe]
- Ki (monkey NPC1L1 [1]; Monkey NPC1L1, competition with compound 1, read-out: Ki): 92 nM
- difference in affinity versus ezetimibe (compound 3) (monkey NPC1L1 [1]; monkey NPC1L1): ~10 fold
- Kd (monkey NPC1L1 [2]): 102 nM
- cholesterol lowering Liver ([3]; liver): 92%
- cholesterol lowering Plasma ([3]; plasma): 48%
- Ki (canine NPC1L1; Canine NPC1L1, competition with compound 1, read-out: Ki): 192 nM
- Ki (canine NPC1L1; Table 3, Dog, read-out: Ki Dog NPC1L1): 190 nM
- Ki (rabbit NPC1L1; Rabbit NPC1L1, competition with compound 1, read-out: Ki): 830 nM
- Ki (rabbit NPC1L1; Table 3, Rabbit, read-out: Ki Rabbit NPC1L1): 830 nM
- difference in affinity versus ezetimibe (compound 3) (rabbit NPC1L1; rabbit NPC1L1): less than 3 fold
- ED50 [4]: 1.9 µg/kg
